Measured values: patent publication US20260001875A1, “AMINOPYRIMIDINYL DERIVATIVES FOR THE TREATMENT OF PARKINSON'S DISEASE” (UNIVERSITY OF DUNDEE, priority 2022, published 2026)
“Also recorded” adds a separate entry of the source.

Tested on: Rab10 pThr73
Assay: Rab10 Thr73 dephosphorylation in PBMC
Assay type: cell-based, human
Conditions: for EC50: Homo sapiens, PBMC
Procedure: PBMC cells were separated from human blood following existing protocol (dx.doi.org/10.17504/protocols.io.bnhxmb7n) and pelleted by centrifugation at 1000 g for 2 min. The supernatant was discarded and the PBMC pellet was resuspended in PBS containing 2% FBS for washing. The suspension was centrifuged at 1000 g for 2 min again and the PBMC pellet was resuspended in RPMI-1640 (Gibco) media supplemented with 10% FBS. The cells were then seeded into 6-well plates and treated with testing compounds at indicated concentrations and time period. After treatment, the cells were collected into 2-ml Eppendorf tube and centrifuged at 500 g for 2 min to pellet the cells, the supernatant was discarded, and the pellet was resuspended in 1 ml PBS and centrifuged at 500 g for 2 min again. The PBMC pellet was lysed with 60 μL of lysis buffer containing 50 mM Tris-HCl, pH 7.5, 1% (v/v) Triton X-100, 1 mM EGTA, 1 mM sodium orthovanadate, 50 mM NaF, 0.1% (v/v) 2-mercaptoethanol, 10 mM 2-glycerophosphate, 5 mM sodium pyrophosphate, 0.1 μg/ml mycrocystin-LR (Enzo Life Sciences), 270 mM sucrose, 0.5 mM DIFP (Sigma, Cat #D0879) in addition to Complete EDTA-free protease inhibitor cocktail (Sigma-Aldrich Cat #11836170001). DIFP is highly toxic and must be prepared in a fume hood to a stock solution of 0.5 M in isopropanol. The lysed cells were then centrifuged at 1500 g for 15 min at 0° C. The supernatants were collected for analysis by quantitative immunoblotting. For long term storage, the supernatant was flash frozen and stored at −80° C. Protein concentrations of cell lysates were determined using Pierce™ BCA Protein Assay Kit (ThermoFisher).
Cell lysates containing a quarter of a volume of 4× NuPAGE LDS sample buffer (NP0007) supplemented with 5% β-mercaptoethanol, were heated at 95° C. for 5 minutes. 15 to 20 μg of samples were loaded onto pre-cast 4-12% Bis-Tris midi 20W or 26W gels (Thermofisher Scientific®, Cat #WG1402BOX or WG1403BOX) and resolved at 130 V for 2 hours with NuPAGE MOPS SDS running buffer (Thermofisher Scientific® Cat #NP0001-02). Proteins were electrophoretically transferred onto a 0.45 μm nitrocellulose membrane (GE Healthcare, Amersham Protran® Supported 0.45 mm NC) at 90 V for 90 min on ice in transfer buffer (48 mM Tris base and 39 mM glycine supplemented with 20% methanol). The transferred membrane was blocked with 5% (w/v) skim milk powder dissolved in tris-buffered saline with tween (TBS-T) (50 mM Tris base, 150 mM sodium chloride (NaCl), 0.1% (v/v) Tween-20) at room temperature for 1 hour. Membranes were washed three times with TBS-T and were incubated in primary antibody overnight at 4° C. Prior to secondary antibody incubation, membranes were washed three times for 15 minutes with TBS-T. The membranes were incubated with secondary antibody for 1 hour at room temperature, protected from light. Thereafter, the membranes were washed with TBS-T three times with a 15-minute incubation for each wash, and protein bands were acquired via near-infrared fluorescent detection using the Odyssey CLx imaging system and quantified using Image Studio software. Graphs were generated using Graphpad Prism version 8 software.
Monoclonal rabbit LRRK2 Ser935 (Cat #UDD2) was purified by MRC PPU Reagents and Services at the University of Dundee and was used at a final concentration of 1 μg/ml. Total LRRK2 (C-terminus) was from Antibodies Inc./Neuromab (Cat #75-253) and was diluted 1:1000. […]

SMILES | EC50 (4 h treatment) | EC50 (24 h treatment) | LRRK2 Ser935 and Rab10 Thr73 dephosphorylation in PBMC (in words) (time course at 300 nM) | T1/2 of Rab10 dephosphorylation in PBMC (time course at 300 nM)
CNc1nc(Nc2ccc(C(=O)N3CCN(C[C@H]4CC[C@H](CSC(C)(C)[C@H](NC(=O)C5(F)CC5)C(=O)N5C[C@@H](O)CC5C(=O)NCc5ccc(-c6scnc6C)cc5)CC4)CC3)cc2OC)ncc1Cl (stereo partly drawn) [Cis-XL01126, (2S,4S)-1-((R)-3-((((1r,4R)-4-((4-(4-((5-chloro-4-(methylamino)pyrimidin-2-yl)amino)-3-methoxybenzoyl)piperazin-1-yl)methyl)cyclohexyl)methyl)thio)-2-(1-fluorocyclopropane-1-carboxamido)-3-methylbutanoyl)-4-hydroxy-N-(4-(4-methylthiazol-5-yl)benzyl)pyrrolidine-2-carboxamide] | > 3000 nM | 705 nM | barely inhibits the phosphorylation; also recorded: induced little LRRK2 and Rab10 dephosphorylation | –
CNc1nc(Nc2ccc(C(=O)N3CCN(C[C@H]4CC[C@H](CSC(C)(C)[C@H](NC(=O)C5(F)CC5)C(=O)N5C[C@H](O)CC5C(=O)NCc5ccc(-c6scnc6C)cc5)CC4)CC3)cc2OC)ncc1Cl (stereo partly drawn) [XL01126, (2S,4R)-1-((R)-3-((((1R,4R)-4-((4-(4-((5-chloro-4-(methylamino)pyrimidin-2-yl)amino)-3-methoxybenzoyl)piperazin-1-yl)methyl)cyclohexyl)methyl)thio)-2-(1-fluorocyclopropane-1-carboxamido)-3-methylbutanoyl)-4-hydroxy-N-(4-(4-methylthiazol-5-yl)benzyl)pyrrolidine-2-carboxamide] | – | 20 nM | – | 22.8 min
